Like-named read-outs stand apart in the source and are kept apart here.
How the values were obtained:
NAMPT = NAMPT (Homo sapiens (Human), UniProt P43490); experiment: Assay 1: Biochemical Inhibition Assay (NAMPT enzymatic reaction, NMN quantified by mass spectrometry);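 further: recombinant His-tagged human NAMPT preincubated with compound 15 min, then reacted 30 min at rt with 1 µM NAM, 100 µM PRPP, 2.5 mM ATP, NMN product read by RapidFire MS, normalized to L-Cystathionine internal standard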
A2780 cells = experiment: Assay 2: In-Vitro Cell Proliferation Assay (A2780 cells, SRB readout, 72 hours); type: cell-based; settings: read-out: Cell Proliferation (IC50);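 further: viable cells counted via sulforhodamine B staining, absorbance at 570 nm, after 72 h exposure at 37 °C, DMSO 0.1% as control, media-only background subtracted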
[1] = Homo sapiens, A2780, 72 h, A2780 cells, 72 hours, SRB

Chain of NAMPT (P43490 whole entry): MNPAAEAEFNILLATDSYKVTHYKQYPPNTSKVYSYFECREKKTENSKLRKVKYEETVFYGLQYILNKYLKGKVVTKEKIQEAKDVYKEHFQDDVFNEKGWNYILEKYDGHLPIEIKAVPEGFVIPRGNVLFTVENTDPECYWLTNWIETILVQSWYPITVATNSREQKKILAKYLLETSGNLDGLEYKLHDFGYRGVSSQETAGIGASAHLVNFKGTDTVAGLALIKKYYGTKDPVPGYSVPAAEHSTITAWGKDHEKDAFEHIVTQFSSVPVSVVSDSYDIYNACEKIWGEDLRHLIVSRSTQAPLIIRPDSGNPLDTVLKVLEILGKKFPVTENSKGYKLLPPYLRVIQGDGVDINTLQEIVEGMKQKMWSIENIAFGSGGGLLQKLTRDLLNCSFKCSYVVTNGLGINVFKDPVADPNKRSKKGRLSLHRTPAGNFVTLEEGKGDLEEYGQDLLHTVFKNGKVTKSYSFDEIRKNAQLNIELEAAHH

Compound	IC50 (NAMPT; read-out: Biochemical (IC50)) [µM]	IC50 (A2780 cells; A2780 cells, 72 hours, SRB) [µM]	IC50 (A2780 cells; [1]) [µM]	IC50 (NAMPT; Biochemical (IC50)) [µM]	IC50 (A2780 cells; Homo sapiens, A2780, 72 h) [µM]
CC(C)(C)OC(=O)N1C[C@@H]2OCCN(S(=O)(=O)c3ccc(CNC(=O)c4ccc5nccn5c4)cc3)[C@@H]2C1 (racemic) [Example 130, cis-4-(4-{[(Imidazo[1,2-a]pyridine-6-carbonyl)-amino]-methyl}-benzenesulfonyl)-hexahydro-pyrrolo[3,4-b][1,4]oxazine-6-carboxylic acid tert-butyl ester]	0.0758	0.0113	–	–	–
O=C(NCc1ccc(S(=O)(=O)N2CCCC(O)C2)cc1)c1ccc2nccn2c1 (racemic) [Example 19, Imidazo[1,2-a)pyridine-6-carboxylic acid 4-(3-hydroxy-piperidine-1-sulfonyl)-benzylamide]	0.0181	–	0.0253	–	–
CC(C)CN1CCN(S(=O)(=O)c2ccc(CNC(=O)c3ccc4nccn4c3)cc2)CC1 [Example 43, Imidazo[1,2-a]pyridine-6-carboxylic acid 4-(4-isobutyl-piperazine-1-sulfonyl)-benzylamide]	0.0216	–	0.0072	–	–
CC(=O)N1CCC(S(=O)(=O)c2ccc(CNC(=O)c3ccc4nccn4c3)cc2)CC1 [Example 171, Imidazo[1,2-a]pyridine-6-carboxylic acid 4-(1-acetyl-piperidine-4-sulfonyl)-benzylamide]	0.0398	–	0.0422	–	–
CC(C)CN1CCC([S+]([O-])c2ccc(CNC(=O)c3cc4cnccc4[nH]3)cc2)CC1 (racemic) [Example 182, 1H-Pyrrolo[3,2-c]pyridine-2-carboxylic acid 4-(l-isobutyl-piperidine-4-sulfinyl)-benzylamide]	0.0263	–	0.0056	–	–
O=C(NCc1ccc(S(=O)(=O)N2CC3CCC(C2)O3)cc1)c1ccc2nccn2c1 [Example 4, Imidazo[1,2-a]pyridine-6-carboxylic acid 4-(8-oxa-3-aza-bicyclo[3.2.1]octane-3-sulfonyl]-benzylamide]	0.072	–	0.0074	–	–
CS(=O)(=O)N1CCC(S(=O)(=O)c2ccc(CNC(=O)c3cnc4[nH]ncc4c3)cc2)CC1 [Example 349, N-[[4-[(1-methylsulfonyl-4-piperidyl)sulfonyl]phenyl]methyl]-1H-pyrazolo[3,4-b]pyridine-5-carboxamide]	0.0735	–	0.0522	–	–
CC(C)(C)OC(=O)N1CCC2(CCCN(S(=O)(=O)c3ccc(CNC(=O)c4ccc5nccn5c4)cc3)C2)CC1 [Example 131, 2-(4-{[(Imidazo[1,2-a]pyridine-6-carbonyl)-amino]-methyl}-benzenesulfonyl)-2,9-diaza-spiro[5.5]undecane-9-carboxylic acid tert-butyl ester]	0.0404	–	0.0058	–	–
O=C(NCc1ccc(S(=O)(=O)N2CC3COCC(C2)C3O)cc1)c1ccc2nccn2c1 (centres unmarked) [Example 138, Imidazo[1,2-a]pyridine-6-carboxylic acid 4-(9-hydroxy-3-oxa-7-aza-bicyclo[3.3.1]nonane-7-sulfonyl)-benzylamide]	0.0288	–	0.0249	–	–
CN1C2COCC1CN(S(=O)(=O)c1ccc(CNC(=O)c3ccc4nccn4c3)cc1)C2 (racemic) [Example 162, cis-Imidazo[1,2-a]pyridine-6-carboxylic acid 4-(9-methyl-3-oxa-7,9-diaza-bicyclo[3.3.1]nonane-7-sulfonyl)-benzylamide]	–	–	–	0.122	0.0598
O=C(NCc1ccc(S(=O)(=O)N2CCCC3(CCCN3)CC2)cc1)c1ccc2nccn2c1 (centres unmarked) [Example 334, N-[[4-(1,9-diazaspiro[4.6]undecan-9-ylsulfonyl)phenyl]methyl] imidazo[1,2-a]pyridine-6-carboxamide]	0.0267	–	0.026	–	–
O=C(NCc1ccc(S(=O)(=O)N2CCCC(O)C2)cc1)c1cnc2[nH]ncc2c1 (racemic) [Example 33, 1H-Pyrazolo[3,4-b]pyridine-5-carboxylic acid 4-(3-hydroxy-piperidine-1-sulfonyl)-benzylamide]	0.169	–	0.184	–	–
O=C(NCc1ccc(S(=O)(=O)N2CCCCC2)cc1)c1ccn2nccc2c1 [Example 48, Pyrazolo[1,5-a]pyridine-5-carboxylic acid 4-(piperidine-1-sulfonyl)-benzylamide]	0.0461	–	2	–	–
CC(=O)N1C[C@@H]2C[C@H]1CN2S(=O)(=O)c1ccc(CNC(=O)c2ccc3nccn3c2)cc1 (racemic) [Example 163, cis-Imidazo[1,2-a]pyridine-6-carboxylic acid 4-(5-acetyl-2,5-diaza-bicyclo[2.2.1]heptane-2-sulfonyl)-benzylamide]	0.0815	–	0.0581	–	–
O=C(NCc1ccc(S(=O)(=O)N2CCC23COC3)cc1)c1cnc2[nH]ncc2c1 [Example 285, N-[[4-(6-oxa-1-azaspiro[3.3]heptan-1-ylsulfonyl)phenyl]methyl]-1H-pyrazolo[3,4-b]pyridine-5-carboxamide]	0.206	–	2	–	–
O=C(NCc1ccc(S(=O)(=O)N2CCC(C(F)(F)F)C2)cc1)c1ccc2nccn2c1 (racemic) [Example 111, Imidazo[1,2-a]pyridine-6-carboxylic acid 4-(3-trifluoromethyl-pyrrolidine-1-sulfonyl)-benzylamide]	0.0056	–	0.0025	–	–

Compound	IC50 (NAMPT; read-out: Biochemical (IC50)) [µM]	IC50 (A2780 cells; A2780 cells, 72 hours, SRB) [µM]	IC50 (A2780 cells; [1]) [µM]	IC50 (NAMPT; Biochemical (IC50)) [µM]	IC50 (A2780 cells; Homo sapiens, A2780, 72 h) [µM]
CC(C)(C)OC(=O)N1CCCC2(CCN(S(=O)(=O)c3ccc(CNC(=O)c4ccc5nccn5c4)cc3)CC2)C1 [Example 122, 9-(4-{[(Imidazo[1,2-a]pyridine-6-carbonyl)-amino]-methyl}-benzenesulfonyl)-2,9-diaza-spiro[5.5]undecane-2-carboxylic acid tert-butyl ester]	0.0255	–	0.0026	–	–
O=C(NCc1ccc(S(=O)(=O)N2CC3CCOC3C2)cc1)c1cc2ccncc2o1 (centres unmarked) [Example 302, N-[[4-(2,3,3a,4,6,6a-hexahydrofuro[2,3-c]pyrrol-5-ylsulfonyl)phenyl]methyl]furo [2,3-c]pyridine-2-carboxamide]	0.0418	–	0.0271	–	–
CC(C)N1CCC([S+]([O-])c2ccc(CNC(=O)N3Cc4ccncc4C3)cc2)CC1 (centres unmarked) [Example 363, N-[[4-[(1-isopropyl-4-piperidyl)sulfinyl]phenyl]methyl]-1,3-dihydropyrrolo[3,4-c]pyridine-2-carboxamide]	0.0537	–	0.0456	–	–
COCCN1CCN(S(=O)(=O)c2ccc(CNC(=O)c3cnc4[nH]ncc4c3)cc2)CC1 [Example 173, 1H-Pyrazolo[3,4-b]pyridine-5-carboxylic acid 4-[4-(2-methoxy-ethyl)-piperazine-1-sulfonyl]-benzylamide]	0.183	–	0.0862	–	–
CN1CCC([S+]([O-])c2ccc(CNC(=O)c3cc4ccncc4o3)cc2)CC1 (centres unmarked) [Example 379, N-[[4-[(1-methyl-4-piperidyl)sulfinyl]phenyl]methyl]furo[2,3-c]pyridine-2-carboxamide]	0.114	–	0.0414	–	–
CC(C)N1CCC(S(=O)(=O)c2ccc(CNC(=O)c3ccc4nccn4c3)cc2)CC1 [Example 315, N-[[4-[(1-isopropyl-4-piperidyl)sulfonyl]phenyl]methyl]imidazo[1,2-a]pyridine-6-carboxamide]	0.089	–	0.0303	–	–
O=C(NCc1ccc(S(=O)(=O)C2CCCOC2)cc1)c1cc2cnccc2[nH]1 (racemic) [Example 154, 1H-Pyrrolo[3,2-c]pyridine-2-carboxylic acid 4-(tetrahydro-pyran-3-sulfonyl)-benzylamide]	0.0331	–	0.0185	–	–
O=C(NCc1ccc(S(=O)(=O)N2CCC(F)(F)C2)cc1)c1cc2ccncc2o1 [Example 300, N-[[4-(3,3-difluoropyrrolidin-1-yl)sulfonylphenyl]methyl]furo [2,3-c]pyridine-2-carboxamide]	0.0214	–	0.0215	–	–
O=C(NCc1ccc(S(=O)(=O)C2CCN(C3CCOCC3)CC2)cc1)c1cnc2nccn2c1 [Example 78, Imidazo[1,2-a]pyrimidine-6-carboxylic acid 4-[1-(tetrahydro-pyran-4-yl)-piperidine-4-sulfonyl]-benzylamide]	0.004	0.0479	–	–	–
CCCC(=O)N1CCC(S(=O)(=O)c2ccc(CNC(=O)c3cc4ccncc4o3)cc2)CC1 [Example 314, N-[[4-[(1-butanoyl-4-piperidyl)sulfonyl]phenyl]methyl]furo[2,3-c]pyridine-2-carboxamide]	0.0203	–	0.0519	–	–
O=C(NCc1ccc(S(=O)(=O)C2CCCN(S(=O)(=O)c3ccccc3)C2)cc1)c1cnc2[nH]ncc2c1 (centres unmarked) [Example 345, N-[[4-[[1-(benzenesulfonyl)-3-piperidyl]sulfonyl]phenyl]methyl]-1H-pyrazolo[3,4-b]pyridine-5-carboxamide]	0.118	–	0.307	–	–
O=C(NCc1ccc(S(=O)(=O)C2CCNCC2)cc1)c1ccc2nccn2c1 [Example 234, N-[[4-(4-piperidylsulfonyl)phenyl]methyl]imidazo[1,2-a]pyridine-6-carboxamide]	0.0906	–	0.13	–	–
O=C(NCc1ccc([S+]([O-])C2CCN(CC(F)(F)F)CC2)cc1)N1Cc2ccncc2C1 (centres unmarked) [Example 376, N-[[4-[[1-(2,2,2-tnfluoroethyl)-4-piperidyl]sulfinyl]phenyl]methyl]-1,3-dihydropyrrolo[3,4-c]pyridine-2-carboxamide]	0.00582	–	0.00854	–	–
O=C(NCc1ccc(S(=O)(=O)N2C3COCC2CC(O)C3)cc1)c1ccc2nccn2c1 (racemic) [Example 140, cis-Imidazo[1,2-a]pyridine-6-carboxylic acid 4-(7-hydroxy-3-oxa-9-aza-bicyclo[3.3.1]nonane-9-sulfonyl)-benzylamide]	–	–	–	0.0464	0.0141
CC(C)(C)OC(=O)NC1CCN(S(=O)(=O)c2ccc(CNC(=O)c3ccc4nccn4c3)cc2)CC1 [Example 55, [1-(4-{[(lmodazo[1,2-a]pyridine-6-carbonyl)-amino]-methyl}-benzenesulfonyl)-piperidin-4-yl]-carbamic acid tert-butyl ester]	0.0077	–	0.0043	–	–

— patent US10696692B2, “Amido-benzyl sulfone and sulfoxide derivates” (Forma TM, LLC, priority 2012, dated 2020)
